Source: the Kinase Knowledgebase extract (Sharma et al. 2016)

Target: PIK3CD (Human) (UniProt O00329)
Assay: Assessment of PIK3CD Kinase Activity (Scintillation Proximity Assay)

Chain of PIK3CD (Human) (O00329 whole entry, looked up): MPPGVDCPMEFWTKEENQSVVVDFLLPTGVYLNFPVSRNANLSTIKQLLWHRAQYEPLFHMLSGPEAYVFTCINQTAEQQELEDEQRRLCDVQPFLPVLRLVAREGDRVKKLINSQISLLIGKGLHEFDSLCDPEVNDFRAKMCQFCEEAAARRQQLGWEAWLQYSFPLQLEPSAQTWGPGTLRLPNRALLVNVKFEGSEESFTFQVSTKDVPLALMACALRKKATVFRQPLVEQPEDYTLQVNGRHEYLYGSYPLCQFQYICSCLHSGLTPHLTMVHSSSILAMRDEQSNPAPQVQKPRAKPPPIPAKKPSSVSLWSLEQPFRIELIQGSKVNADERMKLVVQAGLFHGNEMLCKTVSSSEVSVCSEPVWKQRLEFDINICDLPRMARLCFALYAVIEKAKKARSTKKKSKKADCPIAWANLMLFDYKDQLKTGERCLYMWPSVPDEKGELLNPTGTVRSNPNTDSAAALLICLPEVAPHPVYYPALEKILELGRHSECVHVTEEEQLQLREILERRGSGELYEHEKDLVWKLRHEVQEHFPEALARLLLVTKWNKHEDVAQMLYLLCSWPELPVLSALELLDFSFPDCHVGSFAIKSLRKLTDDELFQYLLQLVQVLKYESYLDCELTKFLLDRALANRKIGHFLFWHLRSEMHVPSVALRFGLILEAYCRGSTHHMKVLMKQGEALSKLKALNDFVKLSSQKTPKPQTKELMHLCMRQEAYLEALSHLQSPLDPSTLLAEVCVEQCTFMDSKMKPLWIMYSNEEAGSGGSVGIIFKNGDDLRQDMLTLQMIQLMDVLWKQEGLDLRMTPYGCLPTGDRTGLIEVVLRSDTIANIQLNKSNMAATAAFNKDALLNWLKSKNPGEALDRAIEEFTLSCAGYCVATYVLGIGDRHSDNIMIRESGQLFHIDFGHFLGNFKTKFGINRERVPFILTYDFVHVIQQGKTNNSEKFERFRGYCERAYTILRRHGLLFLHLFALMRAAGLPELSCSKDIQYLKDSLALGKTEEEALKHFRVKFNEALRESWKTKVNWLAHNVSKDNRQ

| SMILES | IC50 |
| --- | --- |
| CNC(=O)c1ccc(-c2c(C)c(Cl)cc(C(C)n3ccc(=O)c4c(N)ncnc43)c2OC)cn1 (configuration not stated) | ≤ 10 nM |
| CCOc1c(C(C)n2nc(C)c3c(N)ncnc32)cc(Cl)c(C#N)c1C1CN(C(=O)OC)C1 (configuration not stated) | ≤ 10 nM |
| COc1c(C(C)n2nc(C)c3c(N)ncnc32)cc(Cl)c(C)c1-c1ccnc(N(C)C)c1 (configuration not stated) | ≤ 10 nM |
| CNC(=O)c1ccc(-c2c(C)c(Cl)cc(C(C)n3nc(C)c4c(N)ncnc43)c2OC)cc1F (configuration not stated) | ≤ 10 nM |
| CCOc1c(C(C)n2ccc(=O)c3c(N)ncnc32)cc(Cl)c(C#N)c1-c1cncc(S(C)(=O)=O)c1 (configuration not stated) | ≤ 10 nM |
| CCOc1c(C(C)n2nc(C#C[C@@H](C)O)c3c(N)ncnc32)cc(Cl)c(C)c1-c1ccc(C(=O)N(C)C)nc1 (some centres not stated) | ≤ 10 nM |
| CCOc1c(C(C)n2nc(C)c3c(N)ncnc32)cc(Cl)c(F)c1C1CN(C[C@H](C)O)C1 (some centres not stated) | ≤ 10 nM |
| CCOc1c(C(C)n2nc(C)c3c(N)ncnc32)cc(Cl)c(C#N)c1C1CN(CC(C)(C)O)C1 (configuration not stated) | ≤ 10 nM |
| COc1c(C(C)n2nc(C(F)F)c3c(N)ncnc32)cc(Cl)c(C)c1-c1ccc(C(=O)N(C)C)nc1 (configuration not stated) | ≤ 10 nM |
| CCOC(=O)N1CC(c2c(C#N)c(Cl)cc(C(C)n3nc(C)c4c(N)ncnc43)c2OC)C1 (configuration not stated) | ≤ 10 nM |
| CCOc1c(C(C)n2nc(C)c3c(N)ncnc32)cc(Cl)c(C#N)c1-c1cncnc1 (configuration not stated) | ≤ 10 nM |
| CCOc1c(C(C)n2nc(C)c3c(N)ncnc32)cc(Cl)c(C)c1-c1cnn(CC(=O)N(C)C)c1 (configuration not stated) | ≤ 10 nM |
| CCNC(=O)c1c(C)c(Cl)cc(C(C)n2nc(-c3cc(O)cc(F)c3)c3c(N)ncnc32)c1OCC (configuration not stated) | ≤ 10 nM |
| CCOc1c(C(C)n2nc(C)c3c(N)ncnc32)cc(Cl)c(F)c1C1CN(CCO)C1 (configuration not stated) | ≤ 10 nM |
| CNC(=O)c1cc(-c2c(C)c(Cl)cc(C(C)n3nc(C)c4c(N)ncnc43)c2OC)ccn1 (configuration not stated) | ≤ 10 nM |
| CCOc1c(C(C)n2nc(-c3ccn(C)n3)c3c(N)ncnc32)cc(Cl)c(C)c1-c1ccc(C(=O)N(C)C)nc1 (configuration not stated) | ≤ 10 nM |
| CCOc1c(C(C)n2nc(C)c3c(N)ncnc32)cc(Cl)c(C#N)c1C1CN(C(C)C)C1 (configuration not stated) | ≤ 10 nM |
| COc1c(C(C)n2nc(C)c3c(N)ncnc32)cc(Cl)c(C#N)c1C1CN(C(=O)OC(C)C)C1 (configuration not stated) | ≤ 10 nM |
| COc1c(C(C)n2nc(C)c3c(N)ncnc32)cc(Cl)c(C#N)c1C1CN(C(=O)N(C)C)C1 (configuration not stated) | ≤ 10 nM |

| SMILES | IC50 |
| --- | --- |
| CCOc1c(C(C)n2nc(C)c3c(N)ncnc32)cc(Cl)c(C#N)c1C1CN(C(=O)CC)C1 (configuration not stated) | ≤ 10 nM |
| COc1c(C(C)n2nc(C)c3c(N)ncnc32)cc(Cl)c(C)c1CC1CC1 (configuration not stated) | 50 to 200 nM |
| CCOc1c(C(C)n2nc(C)c3c(N)ncnc32)cc(Cl)c(C#N)c1C1CN(C2CCOCC2)C1 (configuration not stated) | ≤ 10 nM |
| CCOc1c(C(C)n2nc(C(F)F)c3c(N)ncnc32)cc(Cl)c(F)c1C1CN(C)C1 (configuration not stated) | ≤ 10 nM |
| COc1c(C(C)n2nc(C)c3c(N)ncnc32)cc(Cl)c(C)c1-c1ccc(N)nc1 (configuration not stated) | ≤ 10 nM |
| CCOc1c(C(C)n2nc(C)c3c(N)ncnc32)cc(Cl)c(C#N)c1C1CN(C(C)(C)CO)C1 (configuration not stated) | ≤ 10 nM |
| CCOc1c(C(C)n2nc(C)c3c(N)ncnc32)cc(Cl)c(C)c1-c1ccc(C(=O)N(C)C)cn1 (configuration not stated) | ≤ 10 nM |
| CCOc1c(C(C)n2nc(C)c3c(N)ncnc32)cc(Cl)c(C#N)c1N1CC(COC)C1 (configuration not stated) | ≤ 10 nM |
| CCNC(=O)c1c(C)c(Cl)cc(C(C)n2nc(-c3ccc4nc(N)sc4c3)c3c(N)ncnc32)c1OCC (configuration not stated) | ≤ 10 nM |
| COc1c(C(C)n2nc(C)c3c(N)ncnc32)cc(Cl)c(C)c1C1CN(CCO)C1 (configuration not stated) | ≤ 10 nM |
| CCOc1c(C(C)n2nc(C)c3c(N)ncnc32)cc(Cl)c(F)c1C1CN(C)C1 (configuration not stated) | ≤ 10 nM |
| COc1c(C(C)n2nc(C(F)F)c3c(N)ncnc32)cc(Cl)c(F)c1C1CN(C[C@H](C)O)C1 (some centres not stated) | ≤ 10 nM |
| COc1c(C(C)n2nc(C)c3c(N)ncnc32)cc(Cl)c(C#N)c1C1CN(C(C)=O)C1 (configuration not stated) | ≤ 10 nM |
| CCOc1c(C(C)n2nc(C)c3c(N)ncnc32)cc(Cl)c(C)c1-c1cncc(C(=O)N(C)C)c1 (configuration not stated) | ≤ 10 nM |
| CCOc1c(C(C)n2nc(C)c3c(N)ncnc32)cc(Cl)c(C#N)c1C1CN(C(=O)C(C)(C)O)C1 (configuration not stated) | ≤ 10 nM |
| CCOc1c(C(C)n2nc(C)c3c(N)ncnc32)cc(Cl)c(C#N)c1-c1ccc(C2=[N+][N+]=C(C)O2)nc1 (configuration not stated) | ≤ 10 nM |
| COc1c(C(C)n2nc(C)c3c(N)ncnc32)cc(Cl)c(C)c1-c1ccnc(N2CC(O)C2)c1 (configuration not stated) | ≤ 10 nM |
| CCS(=O)(=O)N1CC(c2c(C#N)c(Cl)cc(C(C)n3nc(C)c4c(N)ncnc43)c2OC)C1 (configuration not stated) | ≤ 10 nM |
| CCOc1c(C(C)n2nc(CC#N)c3c(N)ncnc32)cc(Cl)c(C)c1-c1ccc(C(=O)N(C)C)nc1 (configuration not stated) | ≤ 10 nM |

| SMILES | IC50 |
| --- | --- |
| CCOc1c(C(C)n2nc(C)c3c(N)ncnc32)cc(Cl)c(C#N)c1C1CN(CC)C1 (configuration not stated) | ≤ 10 nM |
| COc1c(C(C)n2nc(C)c3c(N)ncnc32)cc(Cl)c(C)c1C1CN(C(=O)C2(O)CC2)C1 (configuration not stated) | ≤ 10 nM |
| CCOc1c(C(C)n2nc(C(F)F)c3c(N)ncnc32)cc(Cl)c(F)c1C1CN(C[C@H](C)O)C1 (some centres not stated) | ≤ 10 nM |
| COc1c(C(C)n2ccc(=O)c3c(N)ncnc32)cc(Cl)c(C)c1-c1cncc(F)c1 (configuration not stated) | ≤ 10 nM |
| CCOc1c(C(C)n2nc(C)c3c(N)ncnc32)cc(Cl)c(C#N)c1-c1cncc(-c2ncco2)c1 (configuration not stated) | ≤ 10 nM |
| COc1c(C(C)n2nc(C(F)F)c3c(N)ncnc32)cc(Cl)c(F)c1C1CN(CCO)C1 (configuration not stated) | ≤ 10 nM |
| COc1c(C(C)n2ccc(=O)c3c(N)ncnc32)cc(Cl)c(C)c1C1CN(C(C)C)C1 (configuration not stated) | ≤ 10 nM |
| CCOc1c(C(C)n2nc(-c3cncc(C(=O)N(C)C)c3)c3c(N)ncnc32)cc(Cl)c(C)c1-c1ccc(C(=O)N(C)C)nc1 (configuration not stated) | ≤ 10 nM |
| CCOc1c(C(C)n2nc(C)c3c(N)ncnc32)cc(Cl)c(C#N)c1-c1cncc(C(=O)N(C)C)c1 (configuration not stated) | ≤ 10 nM |
| COc1c(C(C)n2nc(C)c3c(N)ncnc32)cc(Cl)c(C)c1C1CN(C[C@@H](O)C(F)(F)F)C1 (some centres not stated) | ≤ 10 nM |
| COc1c(C(C)n2nc(C)c3c(N)ncnc32)cc(Cl)c(C#N)c1C1CN(C(N)=O)C1 (configuration not stated) | ≤ 10 nM |
| COCCN1CC(c2c(C)c(Cl)cc(C(C)n3nc(C)c4c(N)ncnc43)c2OC)C1 (configuration not stated) | ≤ 10 nM |
| COc1c(C(C)n2ncc3c(N)ncnc32)cc(Cl)c(C)c1-c1ccnc(C(=O)NCCO)c1 (configuration not stated) | 50 to 200 nM |
| CCOc1c(C(C)n2nc(C)c3c(N)ncnc32)cc(C)c(C#N)c1-c1ccnc(S(C)(=O)=O)c1 (configuration not stated) | ≤ 10 nM |
| COc1c(C(C)n2nc(C)c3c(N)ncnc32)cc(Cl)c(C)c1C1CN(C(=O)[C@@H](C)O)C1 (some centres not stated) | ≤ 10 nM |
| COc1c(C(C)n2nc(C)c3c(N)ncnc32)cc(Cl)c(C)c1C1CN(CC(O)C(F)(F)F)C1 (configuration not stated) | ≤ 10 nM |
| CCOc1c(C(C)n2nc(C)c3c(N)ncnc32)cc(Cl)c(C)c1-c1cnn(C)c1 (configuration not stated) | ≤ 10 nM |
| CCOc1c(C(C)n2nc(C)c3c(N)ncnc32)cc(Cl)c(C#N)c1C1CN(C(C)=O)C1 (configuration not stated) | ≤ 10 nM |

Continued, values first:

| IC50 | SMILES |
| --- | --- |
| ≤ 10 nM | COc1c(C(C)n2nc(C)c3c(N)ncnc32)cc(Cl)c(C)c1-c1cnn(CCO)c1 (configuration not stated) |
| ≤ 10 nM | COc1c(C(C)n2nc(C)c3c(N)ncnc32)cc(Cl)c(C#N)c1C1CN(C2CCOC2)C1 (configuration not stated) |
| ≤ 10 nM | CCOc1c(C(C)n2nc(I)c3c(N)ncnc32)cc(Cl)c(C)c1-c1ccc(C(=O)N(C)C)nc1 (configuration not stated) |
| 50 to 200 nM | CCOc1c(C(C)n2nc(CNC)c3c(N)ncnc32)cc(Cl)c(C)c1-c1ccc(C(=O)N(C)C)nc1 (configuration not stated) |
| ≤ 10 nM | CCOc1c(C(C)n2nc(C)c3c(N)ncnc32)cc(Cl)c(C)c1C1CN(C[C@@H](C)O)C1 (some centres not stated) |
| ≤ 10 nM | CCOc1c(C(C)n2nc(C)c3c(N)ncnc32)cc(Cl)c(C#N)c1C1CN(CC(F)(F)F)C1 (configuration not stated) |
| ≤ 10 nM | COc1c(C(C)n2nc(C(F)F)c3c(N)ncnc32)cc(C#N)c(C)c1C1CN(C[C@H](C)O)C1 (some centres not stated) |
| ≤ 10 nM | CCOc1c(C(C)n2nc(C)c3c(N)ncnc32)cc(C)c(C#N)c1C1CN(C[C@H](C)O)C1 (some centres not stated) |
| ≤ 10 nM | CCOc1c(C(C)n2nc(C)c3c(N)ncnc32)cc(Cl)c(C#N)c1-c1ccc(-c2cnn(C)n2)nc1 (configuration not stated) |
| ≤ 10 nM | CCOc1c(C(C)n2nc(-c3cncc(C#N)c3)c3c(N)ncnc32)cc(Cl)c(C)c1-c1ccc(C(=O)N(C)C)nc1 (configuration not stated) |
| ≤ 10 nM | COc1c(C(C)n2ccc(=O)c3c(N)ncnc32)cc(Cl)c(C)c1-c1cccc(C(=O)N(C)C)c1 (configuration not stated) |
| ≤ 10 nM | CCOc1c(C(C)n2nc(C(F)F)c3c(N)ncnc32)cc(Cl)c(F)c1C1CN(CCO)C1 (configuration not stated) |
| ≤ 10 nM | CCOc1c(C(C)n2nc(C)c3c(N)ncnc32)cc(Cl)c(C#N)c1C1CN(C(=O)NC)C1 (configuration not stated) |
| ≤ 10 nM | COc1c(C(C)n2nc(C)c3c(N)ncnc32)cc(Cl)c(C#N)c1C1CN(CC2CC2)C1 (configuration not stated) |
| ≤ 10 nM | CCOc1c(C(C)n2nc(C(F)F)c3c(N)ncnc32)cc(Cl)c(F)c1C1CN(C[C@@H](C)O)C1 (some centres not stated) |
| ≤ 10 nM | COc1c(C(C)n2nc(C)c3c(N)ncnc32)cc(Cl)c(C)c1C1CN(CC(C)C#N)C1 (configuration not stated) |

| IC50 | SMILES |
| --- | --- |
| ≤ 10 nM | COc1c(C(C)n2ccc(=O)c3c(N)ncnc32)cc(Cl)c(C)c1-c1cncnc1 (configuration not stated) |
| ≤ 10 nM | COc1c(C(C)n2ccc(=O)c3c(N)ncnc32)cc(Cl)c(C)c1-c1cncc(S(C)(=O)=O)c1 (configuration not stated) |
| ≤ 10 nM | CCOc1c(C(C)n2nc(C)c3c(N)ncnc32)cc(Cl)c(C#N)c1C1CN(CCOC)C1 (configuration not stated) |
| 10 to 50 nM | CCOc1c(C(C)n2nc(-c3ccc(C(=O)N(C)C)nc3)c3c(N)ncnc32)cc(Cl)c(C)c1-c1ccc(C(=O)N(C)C)nc1 (configuration not stated) |
| ≤ 10 nM | CCOc1c(C(C)n2nc(C(F)F)c3c(N)ncnc32)cc(Cl)c(F)c1C1CN(C(C)C)C1 (configuration not stated) |
| ≤ 10 nM | COc1c(C(C)n2nc(C)c3c(N)ncnc32)cc(Cl)c(C)c1C1CCN(CC(C)(C)O)CC1 (configuration not stated) |
| ≤ 10 nM | COc1c(C(C)n2nc(C)c3c(N)ncnc32)cc(Cl)c(C)c1-c1cncc(C#N)c1 (configuration not stated) |
| ≤ 10 nM | CCC(=O)N1CC(c2c(C)c(Cl)cc(C(C)n3nc(C)c4c(N)ncnc43)c2OC)C1 (configuration not stated) |
| ≤ 10 nM | COc1c(C(C)n2nc(C)c3c(N)ncnc32)cc(Cl)c(C)c1-c1cnn(C2CCN(C(C)=O)CC2)c1 (configuration not stated) |
| ≤ 10 nM | CCOc1c(C(C)n2nc(C)c3c(N)ncnc32)cc(Cl)c(C#N)c1C1CN(C)C1 (configuration not stated) |
| ≤ 10 nM | CCOc1c(C(C)n2nc(C)c3c(N)ncnc32)cc(Cl)c(C)c1-c1ccnc(C(=O)N(C)CCO)c1 (configuration not stated) |
| ≤ 10 nM | COc1c(C(C)n2ccc(=O)c3c(N)ncnc32)cc(Cl)c(C)c1-c1cccc(S(=O)(=O)N(C)C)c1 (configuration not stated) |
| ≤ 10 nM | CCOc1c(C(C)n2nc(C)c3c(N)ncnc32)cc(Cl)c(F)c1C1CNC(=O)O1 (configuration not stated) |
| ≤ 10 nM | CCOc1c(C(C)n2nc(C)c3c(N)ncnc32)cc(C)c(C#N)c1C1CN(CCO)C1 (configuration not stated) |
| ≤ 10 nM | COc1c(C(C)n2nc(C)c3c(N)ncnc32)cc(Cl)c(F)c1C1CN(C[C@@H](C)O)C1 (some centres not stated) |
